Laboratory results reported in patent US12577245B2, “Sulfonyl benzamide derivatives as Bcl-2 inhibitors” (ASCENTAGE PHARMA (SUZHOU) CO., LTD., priority 2021, dated 2026).

Biological target: Bcl-2 G101V (Homo sapiens, UniProt P10415, G101V)
Assay: Bcl-2 G101V inhibition, fluorescence polarization (Flu-BIM tracer) binding assay
Details: FP; 20 nM Bcl2, 5 nM Flu-BIM, 1 h incubation; read-out: Bcl-2 G101V (FP)

| SMILES | IC50 |
| --- | --- |
| CC1(C)CCC(CN2CCN(c3ccc(C(=O)NS(=O)(=O)c4ccc(NC[C@H]5COCCO5)c([N+](=O)[O-])c4)c(Oc4cnc5[nH]ccc5c4)c3)CC2)=C(c2cc(CN3CCOCC3)cs2)C1 [Example 22, (S)—N-((4-(((1,4-dioxan-2-yl)methyl)amino)-3-nitrophenyl)sulfonyl)-2-((1H-pyrrolo[2,3-b]pyridin-5-yl)oxy)-4-(4-((4,4-dimethyl-2-(4-(morpholinomethyl)thiophen-2-yl)cyclohex-1-en-1-yl)methyl)piperazin-1-yl)benzamide] | 42.8 nM |
| CC1(C)CCC(CN2CCN(c3ccc(C(=O)NS(=O)(=O)c4ccc(NC[C@H]5CC[C@@](C)(O)CC5)c([N+](=O)[O-])c4)c(Oc4cnc5[nH]ccc5c4)c3)CC2)=C(c2cc(CN3CCOCC3)cs2)C1 [Example 23, 2-((1H-pyrrolo[2,3-b]pyridin-5-yl)oxy)-4-(4-((4,4-dimethyl-2-(4-(morpholinomethyl)thiophen-2-yl)cyclohex-1-en-1-yl)methyl)piperazin-1-yl)-N-((4-((((1s,4s)-4-hydroxy-4-methylcyclohexyl)methyl)amino)-3-nitrophenyl)sulfonyl)benzamide] | 28.2 nM |
| CC1(C)CCC(CN2CCN(c3ccc(C(=O)NS(=O)(=O)c4ccc(NC[C@H]5CC[C@](C)(O)CC5)c([N+](=O)[O-])c4)c(Oc4cnc5[nH]ccc5c4)c3)CC2)=C(c2cc(CN3CCOCC3)cs2)C1 [Example 24, 2-((1H-pyrrolo[2,3-b]pyridin-5-yl)oxy)-4-(4-((4,4-dimethyl-2-(4-(morpholinomethyl)thiophen-2-yl)cyclohex-1-en-1-yl)methyl)piperazin-1-yl)-N-((4-((((1r,4r)-4-hydroxy-4-methylcyclohexyl)methyl)amino)-3-nitrophenyl)sulfonyl)benzamide] | 30.1 nM |
| CC1(C)CCC(CN2CCN(c3ccc(C(=O)NS(=O)(=O)c4ccc(NCC5CCOCC5)c([N+](=O)[O-])c4)c(Oc4cnc5[nH]ccc5c4)c3)CC2)=C(c2ccsc2CN2CCOCC2)C1 [Example 25, 2-((1H-pyrrolo[2,3-b]pyridin-5-yl)oxy)-4-(4-((4,4-dimethyl-2-(2-(morpholinomethyl)thiophen-3-yl)cyclohex-1-en-1-yl)methyl)piperazin-1-yl)-N-((3-nitro-4-(((tetrahydro-2H-pyran-4-yl)methyl)amino)phenyl)sulfonyl)benzamide] | 39.1 nM |
| CC1(C)CCC(CN2CCN(c3ccc(C(=O)NS(=O)(=O)c4ccc(NCC5CCOCC5)c([N+](=O)[O-])c4)c(Oc4cnc5[nH]ccc5c4)c3)CC2)=C(c2ccc(CN3CCOCC3)s2)C1 [Example 26, 2-((1H-pyrrolo[2,3-b]pyridin-5-yl)oxy)-4-(4-((4,4-dimethyl-2-(5-(morpholinomethyl)thiophen-2-yl)cyclohex-1-en-1-yl)methyl)piperazin-1-yl)-N-((3-nitro-4-(((tetrahydro-2H-pyran-4-yl)methyl)amino)phenyl)sulfonyl)benzamide] | 57.8 nM |
| CC1(C)CCC(CN2CCN(c3ccc(C(=O)NS(=O)(=O)c4ccc(NC[C@H]5COCCO5)c([N+](=O)[O-])c4)c(Oc4cnc5[nH]ccc5c4)c3)CC2)=C(c2cc(CN3CCC(N4CCOCC4)CC3)cs2)C1 [Example 28, (S)—N-((4-(((1,4-dioxan-2-yl)methyl)amino)-3-nitrophenyl)sulfonyl)-2-((1H-pyrrolo[2,3-b]pyridin-5-yl)oxy)-4-(4-((4,4-dimethyl-2-(4-((4-morpholinopiperidin-1-yl)methyl)thiophen-2-yl)cyclohex-1-en-1-yl)methyl)piperazin-1-yl)benzamide] | 47 nM |
| C[C@@H]1CN(Cc2csc(C3=C(CN4CCN(c5ccc(C(=O)NS(=O)(=O)c6ccc(NC[C@H]7COCCO7)c([N+](=O)[O-])c6)c(Oc6cnc7[nH]ccc7c6)c5)CC4)CCC(C)(C)C3)c2)C[C@H](C)N1C [Example 29, N-((4-((((S)-1,4-dioxan-2-yl)methyl)amino)-3-nitrophenyl)sulfonyl)-2-((1H-pyrrolo[2,3-b]pyridin-5-yl)oxy)-4-(4-((4,4-dimethyl-2-(4-(((3S,5R)-3,4,5-trimethylpiperazin-1-yl)methyl)thiophen-2-yl)cyclohex-1-en-1-yl)methyl)piperazin-1-yl)benzamide] | 71.3 nM |
| CC1(C)CCC(CN2CCN(c3ccc(C(=O)NS(=O)(=O)c4ccc(NC[C@H]5COCCO5)c([N+](=O)[O-])c4)c(Oc4cnc5[nH]ccc5c4)c3)CC2)=C(c2cc(CN3CCN4CCOC[C@H]4C3)cs2)C1 [Example 30, N-((4-((((S)-1,4-dioxan-2-yl)methyl)amino)-3-nitrophenyl)sulfonyl)-2-((1H-pyrrolo[2,3-b]pyridin-5-yl)oxy)-4-(4-((2-(4-(((R)-hexahydropyrazino[2,1-c][1,4]oxazin-8(1H)-yl)methyl)thiophen-2-yl)-4,4-dimethylcyclohex-1-en-1-yl)methyl)piperazin-1-yl)benzamide] | 66 nM |
| CC1(C)CCC(CN2CCN(c3ccc(C(=O)NS(=O)(=O)c4ccc(NC[C@H]5COCCO5)c([N+](=O)[O-])c4)c(Oc4cnc5[nH]ccc5c4)c3)CC2)=C(c2cc(CN3CCN(C4COC4)CC3)cs2)C1 [Example 31, (S)—N-((4-(((1,4-dioxan-2-yl)methyl)amino)-3-nitrophenyl)sulfonyl)-2-((1H-pyrrolo[2,3-b]pyridin-5-yl)oxy)-4-(4-((4,4-dimethyl-2-(4-((4-(oxetan-3-yl)piperazin-1-yl)methyl)thiophen-2-yl)cyclohex-1-en-1-yl)methyl)piperazin-1-yl)benzamide] | 59.2 nM |
| CC1(C)CCC(CN2CCN(c3ccc(C(=O)NS(=O)(=O)c4ccc(NC[C@H]5COCCO5)c([N+](=O)[O-])c4)c(Oc4cnc5[nH]ccc5c4)c3)CC2)=C(c2cc(CN3CCC(F)(F)CC3)cs2)C1 [Example 32, (S)—N-((4-(((1,4-dioxan-2-yl)methyl)amino)-3-nitrophenyl)sulfonyl)-2-((1H-pyrrolo[2,3-b]pyridin-5-yl)oxy)-4-(4-((2-(4-((4,4-difluoropiperidin-1-yl)methyl)thiophen-2-yl)-4,4-dimethylcyclohex-1-en-1-yl)methyl)piperazin-1-yl)benzamide] | 25.7 nM |
| CC1(C)CCC(CN2CCN(c3ccc(C(=O)NS(=O)(=O)c4ccc(NC[C@H]5COCCO5)c([N+](=O)[O-])c4)c(Oc4cnc5[nH]ccc5c4)c3)CC2)=C(c2cc(-c3ccc(F)cc3)cs2)C1 [Example 33, (S)—N-((4-(((1,4-dioxan-2-yl)methyl)amino)-3-nitrophenyl)sulfonyl)-2-((1H-pyrrolo[2,3-b]pyridin-5-yl)oxy)-4-(4-((2-(4-(4-fluorophenyl)thiophen-2-yl)-4,4-dimethylcyclohex-1-en-1-yl)methyl)piperazin-1-yl)benzamide] | 33.1 nM |
| CC1(C)CCC(CN2CCN(c3ccc(C(=O)NS(=O)(=O)c4ccc(NCC5CCOCC5)c([N+](=O)[O-])c4)c(Oc4cnc5[nH]ccc5c4)c3)CC2)=C(c2cc(-c3ccccc3)cs2)C1 [Example 34, 2-((1H-pyrrolo[2,3-b]pyridin-5-yl)oxy)-4-(4-((4,4-dimethyl-2-(4-phenylthiophen-2-yl)cyclohex-1-en-1-yl)methyl)piperazin-1-yl)-N-((3-nitro-4-(((tetrahydro-2H-pyran-4-yl)methyl)amino)phenyl)sulfonyl)benzamide] | 47.9 nM |
| CC1(C)CCC(CN2CCN(c3ccc(C(=O)NS(=O)(=O)c4ccc(NCC5CCOCC5)c([N+](=O)[O-])c4)c(Oc4cnc5[nH]ccc5c4)c3)CC2)=C(c2ccsc2-c2ccccc2)C1 [Example 35, 2-((1H-pyrrolo[2,3-b]pyridin-5-yl)oxy)-4-(4-((4,4-dimethyl-2-(2-phenylthiophen-3-yl)cyclohex-1-en-1-yl)methyl)piperazin-1-yl)-N-((3-nitro-4-(((tetrahydro-2H-pyran-4-yl)methyl)amino)phenyl)sulfonyl)benzamide] | 47.6 nM |
| CC1(C)CCC(CN2CCN(c3ccc(C(=O)NS(=O)(=O)c4ccc(NC[C@H]5CC[C@@](C)(O)CC5)c([N+](=O)[O-])c4)c(Oc4cnc5[nH]ccc5c4)c3)CC2)=C(c2cc(-c3ccc(F)cc3)cs2)C1 [Example 36, 2-((1H-pyrrolo[2,3-b]pyridin-5-yl)oxy)-4-(4-((2-(4-(4-fluorophenyl)thiophen-2-yl)-4,4-dimethylcyclohex-1-en-1-yl)methyl)piperazin-1-yl)-N-((4-((((1s,4s)-4-hydroxy-4-methylcyclohexyl)methyl)amino)-3-nitrophenyl)sulfonyl)benzamide] | 46.2 nM |
| CC1(C)CCC(CN2CCN(c3ccc(C(=O)NS(=O)(=O)c4ccc(NC[C@H]5CC[C@](C)(O)CC5)c([N+](=O)[O-])c4)c(Oc4cnc5[nH]ccc5c4)c3)CC2)=C(c2cc(-c3ccc(F)cc3)cs2)C1 [Example 37, 2-((1H-pyrrolo[2,3-b]pyridin-5-yl)oxy)-4-(4-((2-(4-(4-fluorophenyl)thiophen-2-yl)-4,4-dimethylcyclohex-1-en-1-yl)methyl)piperazin-1-yl)-N-((4-((((1r,4r)-4-hydroxy-4-methylcyclohexyl)methyl)amino)-3-nitrophenyl)sulfonyl)benzamide] | 34.9 nM |
| CC1(C)CCC(CN2CCN(c3ccc(C(=O)NS(=O)(=O)c4ccc(NC[C@H]5COCCO5)c([N+](=O)[O-])c4)c(Oc4cnc5[nH]ccc5c4)c3)CC2)=C(c2cc(-c3ccc(Cl)cc3)cs2)C1 [Example 38, (S)—N-((4-(((1,4-dioxan-2-yl)methyl)amino)-3-nitrophenyl)sulfonyl)-2-((1H-pyrrolo[2,3-b]pyridin-5-yl)oxy)-4-(4-((2-(4-(4-chlorophenyl)thiophen-2-yl)-4,4-dimethylcyclohex-1-en-1-yl)methyl)piperazin-1-yl)benzamide] | 35.4 nM |
| CC(C)c1ccccc1-c1csc(C2=C(CN3CCN(c4ccc(C(=O)NS(=O)(=O)c5ccc(NC[C@H]6COCCO6)c([N+](=O)[O-])c5)c(Oc5cnc6[nH]ccc6c5)c4)CC3)CCC(C)(C)C2)c1 [Example 39, (S)—N-((4-(((1,4-dioxan-2-yl)methyl)amino)-3-nitrophenyl)sulfonyl)-2-((1H-pyrrolo[2,3-b]pyridin-5-yl)oxy)-4-(4-((2-(4-(2-isopropylphenyl)thiophen-2-yl)-4,4-dimethylcyclohex-1-en-1-yl)methyl)piperazin-1-yl)benzamide] | 36 nM |
